Data on 47 compounds can be found in US10065950B2, “Substituted thiazoles as HIV integrase inhibitors” (Japan Tobacco Inc., priority 2010, dated 2018).

For the experiment, the target named is HIV-1 pNL4-3 integrase (Human immunodeficiency virus type 1 group M subtype B (isolate NY5) (HIV-1), UniProt P12497). Description: Determination of enzyme (HIV integrase) inhibitory activity. Type of experiment: biochemical. The settings on record: calculated from inhibition rate (fluorescence). Here is the method: The following explains evaluation methods of the HIV integrase inhibitory activity of the compound of the present invention.
A full-length gene sequence (Accession No.: M19921) of HIV-1 pNL4-3 integrase was inserted into restriction enzyme Nde I and Xho I sites of plasmid pET21a(+) (manufactured by Novagen) to construct an integrase expression vector pET21a-IN-Wild type.
Escherichia coli recombinant BL21(DE3) transformed with plasmid pET21a-IN-Wild type obtained in (i) was shake cultured at 30° C. in a liquid medium containing ampicillin. When the culture reached the logarithmic growth phase, isopropyl-β-D-thiogalactopyranoside was added to promote expression of integrase gene. The culture was continued for 5 hr to promote accumulation of the integrase protein. The recombinant E. coli was collected in pellets by centrifugal separation and preserved at −80° C.
This Escherichia coli was suspended in Lysis buffer (50 mM Tris-HCl (pH 7.6), 10 mM MgCl2, 5 mM DTT), and disrupted by repeating treatments of pressurization and depressurization, and insoluble fraction was collected by centrifugation at 4° C., 18,000 rpm for 60 min. This was suspended in Lysis buffer containing a protease inhibitor, […] and 10 mM CHAPS were added, and the mixture was stirred at 4° C. for 30 min. Water-soluble fraction was collected by centrifugation at 4° C., 9,000 rpm for 30 min. The obtained fraction was diluted with a column buffer (50 mM Tris-HCl (pH 7.6), 1 mM DTT, 10% Glycerol, 10 mM CHAPS) to 5-fold, and the mixture was applied to heparin column (HiPrep 16/10 Heparin FF column: manufactured by GE Healthcare Bio-Sciences). Using a column buffer containing 1M NaCl, a protein was eluted with 0-1M NaCl concentration gradient, and an eluted fraction containing an integrase protein was collected. The obtained fraction was diluted 5-fold with a column buffer (50 mM Tris-HCl (pH 7.6), 1 mM DTT, 10% Glycerol, 10 mM CHAPS), and the mixture was applied to cation exchange column (Mono-S column: manufactured by GE Healthcare Bio-Sciences). Using a column buffer containing 1M NaCl, a protein was eluted with 0-1M NaCl concentration gradient, and an eluted fraction containing an integrase protein was collected. The obtained fractions of the integrase protein were collected, and preserved at −80° C.
The following DNA synthesized by FASMAC was dissolved in TE buffer (10 mM Tris-hydrochloric acid (pH 8.0), 1 mM EDTA) and mixed with donor DNA, target DNA, and each complementary strand (+ and − strands) to 1 μM. The mixture was heated at 95° C. for 5 min, 80° C. for 10 min, 70° C. for 10 min, 60° C. for 10 min, 50° C. for 10 min and 40° C. for 10 min and kept at 25° C. to give a double stranded DNA, which was used for the test.
Donor DNA (+strand having biotin attached to the 5′ terminal)
Target DNA (+, − strands both having digoxigenin attached to the 3′ terminal)
The donor DNA was diluted with TE buffer to 20 nM, of which 50 μL was added to each well of streptavidin-coated black plate (manufactured by PIAS Corporation) and allowed to adsorb at 37° C. for 20 min. The plate was washed with phosphate buffer (Dulbecco's PBS, Sanko Junyaku Co., Ltd.) containing 0.1% Tween 20 and phosphate buffer. Then, an enzyme reaction mixture (70 μL), a test substance (10 μL) diluted with the enzyme reaction mixture and 0.75 μM integrase protein (10 μL) were added to each well and the mixture was reacted at 37° C. for 60 min. composition of enzyme reaction mixture: 30 mM MOPS (3-morpholinopropanesulfonic acid), 5 mM magnesium chloride, 3 mM DTT (dithiothreitol), 0.1 mg/mL BSA (bovine serum albumin), 5% glycerol, 10% DMSO (dimethyl sulfoxide), 0.01% Tween 20.
Then, 25 nM target DNA (10 μL) was added, and the mixture was reacted at 37° C. for 20 min and washed with phosphate buffer containing 0.1% Tween 20 to stop the reaction. […]

`CC[C@@H]1Cn2cc(-c3nnc(Cc4ccc(F)cc4)s3)c(=O)c(O)c2C(=O)N1CC1CC1` [Example 303]: the IC50 was 5.8 nM.

For the compound `CCN1C[C@@](C)(C(=O)N2CCC2)n2cc(-c3ncc(Cc4ccc(F)cc4)s3)c(=O)c(O)c2C1=O` [Example 271], the IC50 was 11 nM.

Consider `CC(C)N1C[C@@H](C(C)(C)C)n2cc(-c3nnc(Cc4ccc(F)cc4)s3)c(=O)c(O)c2C1=O` [Example 192], for which the IC50 is 15 nM.

Turning to `CC(C)N1CC2(CCOCC2)n2cc(-c3nnc(Cc4ccc(F)cc4F)s3)c(=O)c(O)c2C1=O` [Example 8], the IC50 was 8.9 nM.

For the compound `COCC1(COC)Cn2cc(-c3nnc(Cc4ccc(F)cc4)s3)c(=O)c(O)c2C(=O)N1C(C)C` [Example 320], the IC50 was 9.4 nM.

On to `C[C@@]1(C(=O)N2CCC2)CN(C2CC2)C(=O)c2c(O)c(=O)c(-c3ncc(Cc4ccc(F)cc4)s3)cn21` [Example 268], for which the IC50 was 15 nM.

Regarding `CC(C)N1C(=O)c2c(O)c(=O)c(-c3nnc(Cc4ccc(F)cc4F)s3)cn2C[C@H]1CN(C)C(=O)C(C)(C)C` [Example 184], the IC50 is 6 nM.

Turning to `CCNC(=O)[C@@]1(C)CN(C2CC2)C(=O)c2c(O)c(=O)c(-c3nnc(Cc4ccc(F)cc4)s3)cn21` [Example 187], the IC50 was 19 nM.

Consider `CCN1C(=O)c2c(O)c(=O)c(-c3nnc(Cc4ccc(F)cc4)s3)cn2C[C@H]1C` [Example 328], for which the IC50 is 7.1 nM.

Turning to `CC(C)N1C[C@](C)(CN(C)S(C)(=O)=O)n2cc(-c3nnc(Cc4ccc(F)cc4F)s3)c(=O)c(O)c2C1=O` [Example 210], the IC50 was 23 nM.

Regarding `CC(C)N1CC(C)(C(=O)N(C)C)n2cc(-c3ncc(Cc4ccc(F)cc4)s3)c(=O)c(O)c2C1=O` (centres unmarked) [Example 107], the IC50 was 19 nM.

For the compound `COC[C@H]1[C@H](C)N(C(C)C)C(=O)c2c(O)c(=O)c(-c3nnc(Cc4ccc(F)cc4)s3)cn21` [Example 285], the IC50 was 11 nM.

Turning to `CCN1C(=O)c2c(O)c(=O)c(-c3nnc(Cc4ccc(F)cc4)s3)cn2C[C@@H]1C(C)C` [Example 287], the IC50 is 8 nM.

`COCC1CN(C(C)C)C(=O)c2c(O)c(=O)c(-c3nnc(Cc4ccc(F)cc4F)s3)cn21` (centres unmarked) [Example 18]: the IC50 was 8.2 nM.

With `CCC(=O)N(C)C[C@@]1(C)CN(C(C)C)C(=O)c2c(O)c(=O)c(-c3nnc(Cc4ccc(F)cc4F)s3)cn21` [Example 207], the IC50 was 24 nM.

With `COCC1(C)CN(C(C)C)C(=O)c2c(O)c(=O)c(-c3ncc(Cc4ccc(F)cc4)s3)cn21` (centres unmarked) [Example 103], the IC50 was 18 nM.

On to `CCNC(=O)C1(C)CN(C(C)C)C(=O)c2c(O)c(=O)c(-c3ncc(Cc4ccc(F)cc4F)s3)cn21` (centres unmarked) [Example 27], for which the IC50 is 10 nM.

On to `CC(C)N1C(=O)c2c(O)c(=O)c(-c3nnc(Cc4ccc(F)cc4F)s3)cn2CC1CC#N` (centres unmarked) [Example 82], for which the IC50 is 4.9 nM.

Consider `COCCOC[C@@H]1Cn2cc(-c3nnc(Cc4ccc(F)cc4)s3)c(=O)c(O)c2C(=O)N1C1CCC1` [Example 84], for which the concentration for half-maximal inhibition (IC50) is 11 nM.

For `COC[C@H]1CN(C(C)C)C(=O)c2c(O)c(=O)c(-c3nnc(Cc4cccc(Cl)c4)s3)cn21` [Example 228], the concentration for half-maximal inhibition (IC50) was 11 nM.

`CNC(=O)[C@]1(C)CN(C(C)C)C(=O)c2c(O)c(=O)c(-c3nnc(Cc4ccc(F)cc4F)s3)cn21` [Example 190]: the IC50 was 11 nM.

Regarding `COC[C@@H]1[C@@H](C)n2cc(-c3nnc(Cc4ccc(F)cc4)s3)c(=O)c(O)c2C(=O)N1C(C)C` [Example 304], the IC50 is 9.1 nM.

Consider `CCN1C(=O)c2c(O)c(=O)c(-c3nnc(Cc4ccc(F)cc4)s3)cn2[C@@H](C)[C@@H]1COC` [Example 298], for which the IC50 was 9 nM.

For the compound `CC[C@H](C)N1C[C@H](COC)n2cc(-c3nnc(Cc4ccc(F)cc4F)s3)c(=O)c(O)c2C1=O` [Example 135], the IC50 is 12 nM.

With `COCCOC[C@@]1(C(=O)N(C)C)CN(C(C)C)C(=O)c2c(O)c(=O)c(-c3nnc(Cc4ccc(F)cc4)s3)cn21` [Example 391], the IC50 is 24 nM.

Consider `CCOC[C@@H]1Cn2cc(-c3ncc(Cc4ccc(F)cc4)s3)c(=O)c(O)c2C(=O)N1CC` [Example 222], for which the IC50 is 6.5 nM.

Regarding `CCN1C(=O)c2c(O)c(=O)c(-c3ncc(Cc4ccc(F)cc4)s3)cn2C[C@]1(C)C(=O)NC` [Example 292], the IC50 is 7.3 nM.

Consider `COC[C@@H]1Cn2cc(-c3ncc(Cc4ccc(F)cc4F)s3)c(=O)c(O)c2C(=O)N1C(C)C` [Example 168], for which the IC50 is 5.8 nM.

For the compound `COCCOC[C@@H]1CN(CC(C)C)C(=O)c2c(O)c(=O)c(-c3nnc(Cc4ccc(F)cc4F)s3)cn21` [Example 47], the IC50 was 12 nM.

As to `CC(C)N1C(=O)c2c(O)c(=O)c(-c3nnc(Cc4ccc(F)cc4)s3)cn2C[C@@]1(C)C(=O)NC(C)(C)C` [Example 309], the IC50 was 8.8 nM.

Regarding `CC(C)N1CC(CO)n2cc(-c3ncc(Cc4ccc(F)cc4F)s3)c(=O)c(O)c2C1=O` (centres unmarked) [Example 19], the IC50 was 8.1 nM.

On to `CCOC[C@H]1CN(C(C)C)C(=O)c2c(O)c(=O)c(-c3nnc(Cc4ccc(F)cc4F)s3)cn21` [Example 142], for which the IC50 was 6.4 nM.

As to `COC[C@H]1CN([C@H](C)C(C)C)C(=O)c2c(O)c(=O)c(-c3nnc(Cc4ccc(F)cc4F)s3)cn21` [Example 148], the IC50 is 9.8 nM.

On to `CC(=O)N(C)C[C@@H]1Cn2cc(-c3nnc(Cc4ccc(F)cc4)s3)c(=O)c(O)c2C(=O)N1C(C)C` [Example 163], for which the IC50 is 7.7 nM.

Consider `CNC(=O)[C@@]1(C)CN(C(C)C)C(=O)c2c(O)c(=O)c(-c3nnc(Cc4ccc(F)cc4F)s3)cn21` [Example 191], for which the IC50 is 12 nM.

`CCC(CC)N1C(=O)c2c(O)c(=O)c(-c3nnc(Cc4ccc(F)cc4)s3)cn2C[C@H]1COC` [Example 295]: the IC50 is 12 nM.

`COC[C@H]1CN(CC2CC2)C(=O)c2c(O)c(=O)c(-c3nnc(Cc4ccc(F)cc4)s3)cn21` [Example 116]: the IC50 was 9.6 nM.

On to `CC(C)N1CC(C)(CO)n2cc(-c3ncc(Cc4ccc(F)cc4)s3)c(=O)c(O)c2C1=O` (centres unmarked) [Example 111], for which the half-inhibitory concentration (IC50) was 20 nM.

Regarding `COC[C@H]1CN(C(C)C)C(=O)c2c(O)c(=O)c(-c3nnc(Cc4cc(OC)c(F)cc4F)s3)cn21` [Example 277], the IC50 was 12 nM.

Regarding `CCCN1C[C@H](COCC)n2cc(-c3nnc(Cc4ccc(F)cc4)s3)c(=O)c(O)c2C1=O` [Example 357], the IC50 is 7.3 nM.

In the case of `CC[C@@H](C)N1C[C@@H](COC)n2cc(-c3nnc(Cc4ccc(F)cc4)s3)c(=O)c(O)c2C1=O` [Example 167], the IC50 was 10 nM.

On to `CC(C)N1C[C@](C)(C(=O)N(C)C)n2cc(-c3nnc(Cc4ccc(F)cc4F)s3)c(=O)c(O)c2C1=O` [Example 169], for which the IC50 is 12 nM.

`CO[C@@H](C)[C@@H]1Cn2cc(-c3nnc(Cc4ccc(F)cc4)s3)c(=O)c(O)c2C(=O)N1C(C)C` [Example 334]: the IC50 was 9.1 nM.

Turning to `COCCOC[C@H]1Cn2cc(-c3ncc(Cc4ccc(F)cc4F)s3)c(=O)c(O)c2C(=O)N1C(C)C` [Example 59], the IC50 was 12 nM.

Turning to `O=C1c2c(O)c(=O)c(-c3nnc(Cc4ccc(F)cc4F)s3)cn2C2(CCOCC2)CN1C1CC1` [Example 30], the IC50 is 9 nM.

Consider `CC(C)N1CC(C)(C(=O)O)n2cc(-c3ncc(Cc4ccc(F)cc4)s3)c(=O)c(O)c2C1=O` (centres unmarked) [Example 112], for which the IC50 is 19 nM.

Regarding `CNC(=O)C1Cn2cc(-c3nnc(Cc4ccc(F)cc4F)s3)c(=O)c(O)c2C(=O)N1C(C)C` (centres unmarked) [Example 51], the IC50 was 5.7 nM.
